According to patent US10420341B2, “Herbicidal phenylpyrimidines” (BASF SE, priority 2015, dated 2019):

Experiments:
AMARE [1] = test: greenhouse pre-emergence herbicidal test; format: in vivo, Amaranthus retroflexus; details: pre-emergence method, scale from 0 to 100
Excerpt: (§1) The seeds of the test plants were sown separately for each species. For the pre-emergence treatment, the active ingredients, which had been suspended or emulsified in water, were applied directly after sowing by means of finely distributing nozzles. The containers were irrigated gently to promote germination and growth and subsequently covered with transparent plastic hoods until the plants had rooted. This cover caused uniform germination of the test plants, unless this had been impaired by the active ingredients. Depending on the species, the plants were kept at 10-25° C. or 20-35° C., respectively. The test period extended over 2 to 4 weeks. During this time, the plants were tended, and their response to the individual treatments was evaluated. Evaluation was carried out using a scale from 0 to 100. 100 means no emergence of the plants, or complete destruction of at least the aerial moieties, and 0 means no damage, or normal course of growth. […] The plants used in the greenhouse experiments were of the following species: [table]

ECHCG [2] = test: greenhouse pre-emergence herbicidal test; format: in vivo, Echinocloa crus-galli; details: pre-emergence method, application rate 500 g/ha, scale from 0 to 100
Outline: (§2)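 Damage was rated on a 0 to 100 scale, where 0 is normal growth and 100 is no emergence or full destruction of aerial parts, after 2 to 4 weeks. Treatment was applied pre-emergence, right after sowing, as an aqueous suspension or emulsion via fine nozzles.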

APESV [3] = test: greenhouse pre-emergence herbicidal test; format: in vivo, Apera spica-venti; details: pre-emergence method, scale from 0 to 100
Outline: as §2

AMARE [4] = test: greenhouse post-emergence herbicidal test; format: in vivo, Amaranthus retroflexus; details: post-emergence method, scale from 0 to 100
Outline: (§3)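 Read-out is a visual 0–100 injury rating, 100 meaning complete destruction of at least aerial parts and 0 meaning normal growth. It was taken over 2–4 weeks after plants 3–15 cm tall were treated with compound suspended or emulsified in water.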

LOLMU = test: greenhouse post-emergence herbicidal test; format: in vivo, Lolium multiflorum; details: post-emergence method, scale from 0 to 100
Excerpt: (§4) The seeds of the test plants were sown separately for each species. For the post-emergence treatment, the test plants were first grown to a height of 3 to 15 cm, depending on the plant habit, and only then treated with the active ingredients which had been suspended or emulsified in water. For this purpose, the test plants were either sown directly and grown in the same containers, or they were first grown separately as seedlings and transplanted into the test containers a few days prior to treatment. Depending on the species, the plants were kept at 10-25° C. or 20-35° C., respectively. The test period extended over 2 to 4 weeks. During this time, the plants were tended, and their response to the individual treatments was evaluated. Evaluation was carried out using a scale from 0 to 100. 100 means no emergence of the plants, or complete destruction of at least the aerial moieties, and 0 means no damage, or normal course of growth. […] The plants used in the greenhouse experiments were of the following species: [table]

ALOMY = test: greenhouse post-emergence herbicidal test; format: in vivo, Alopercurus myosuroides; details: post-emergence method, scale from 0 to 100
Outline: as §3

POLCO [5] = test: greenhouse post-emergence herbicidal test; format: in vivo, Polygonum convolvulus; details: post-emergence method, scale from 0 to 100
Outline: as §3

AVEFA [6] = test: greenhouse post-emergence herbicidal test; format: in vivo, Avena fatua; details: post-emergence method, scale from 0 to 100
Outline: as §3

ECHCG [7] = test: greenhouse post-emergence herbicidal test; format: in vivo, Echinocloa crus-galli; details: post-emergence method, scale from 0 to 100
Outline: as §3

ABUTH = test: greenhouse post-emergence herbicidal test; format: in vivo, Abutilon theophrasti; details: post-emergence method, application rate 1000 g/ha, scale from 0 to 100
Outline: as §3

SETVI [8] = test: greenhouse pre-emergence herbicidal test; format: in vivo, Setaria viridis; details: pre-emergence method, application rate 1000 g/ha, scale from 0 to 100
Excerpt: as §1

POLCO [9] = test: greenhouse pre-emergence herbicidal test; format: in vivo, Polygonum convolvulus; details: pre-emergence method, application rate 500 g/ha, scale from 0 to 100
Excerpt: as §1

SETVI [10] = test: greenhouse post-emergence herbicidal test; format: in vivo, Setaria viridis; details: post-emergence method, application rate 500 g/ha, scale from 0 to 100
Excerpt: as §4

AVEFA [11] = test: greenhouse pre-emergence herbicidal test; format: in vivo, Avena fatua; details: pre-emergence method, application rate 500 g/ha, scale from 0 to 100
Excerpt: as §1

APESV [12] = test: greenhouse post-emergence herbicidal test; format: in vivo, Apera spica-venti; details: post-emergence method, application rate 500 g/ha, scale from 0 to 100
Excerpt: as §4

COC(=O)c1nc(SC)ncc1-c1cc(C)ccc1Cl [example 117]
herbicidal activity against AMARE (AMARE [1]; application rate 500 g/ha): good (A good herbicidal activity is given at values of at least 70)
herbicidal activity against ECHCG (ECHCG [2]): good (A good herbicidal activity is given at values of at least 70)

CS(=O)(=O)NC(=O)c1nc(C2CC2)ncc1-c1ccccc1Cl [example 286]
herbicidal activity against APESV (APESV [3]; application rate 500 g/ha): very good (a very good herbicidal activity is given at values of at least 85)
herbicidal activity against ECHCG (ECHCG [2]): very good (a very good herbicidal activity is given at values of at least 85)
herbicidal activity against AMARE (AMARE [4]; application rate 500 g/ha): very good (a very good herbicidal activity is given at values of at least 85)
herbicidal activity against LOLMU (LOLMU; application rate 500 g/ha): very good (a very good herbicidal activity is given at values of at least 85)

CN(C)C(=O)c1nc(C2CC2)ncc1-c1ccccc1Cl [example 285]
herbicidal activity against AMARE (AMARE [1]; application rate 500 g/ha): good (A good herbicidal activity is given at values of at least 70)
herbicidal activity against APESV (APESV [3]; application rate 500 g/ha): good (A good herbicidal activity is given at values of at least 70)

Cc1ccccc1-c1cnc(C2CC2)nc1C(=O)O [example 161]
herbicidal activity against APESV (APESV [3]; application rate 1000 g/ha): very good (a very good herbicidal activity is given at values of at least 85)
herbicidal activity against ALOMY (ALOMY; application rate 1000 g/ha): good (A good herbicidal activity is given at values of at least 70)
herbicidal activity against AMARE (AMARE [4]; application rate 1000 g/ha): good (A good herbicidal activity is given at values of at least 70)
herbicidal activity against LOLMU (LOLMU; application rate 1000 g/ha): good (A good herbicidal activity is given at values of at least 70)
herbicidal activity against POLCO (POLCO [5]; application rate 1000 g/ha): good (A good herbicidal activity is given at values of at least 70)

COC(=O)c1nc(C2CC2)ncc1-c1c(Cl)cc(F)cc1Cl [example 208]
herbicidal activity against AMARE (AMARE [1]; application rate 1000 g/ha): good (A good herbicidal activity is given at values of at least 70)
herbicidal activity against APESV (APESV [3]; application rate 1000 g/ha): very good (a very good herbicidal activity is given at values of at least 85)
herbicidal activity against ALOMY (ALOMY; application rate 1000 g/ha): very good (a very good herbicidal activity is given at values of at least 85)
herbicidal activity against AVEFA (AVEFA [6]; application rate 1000 g/ha): very good (a very good herbicidal activity is given at values of at least 85)

CCc1ncc(-c2ccccc2Cl)c(C(=O)O)n1 [example 6]
herbicidal activity against APESV (APESV [3]; application rate 500 g/ha): very good (a very good herbicidal activity is given at values of at least 85)
herbicidal activity against ECHCG (ECHCG [7]; application rate 500 g/ha): very good (a very good herbicidal activity is given at values of at least 85)
herbicidal activity against LOLMU (LOLMU; application rate 500 g/ha): good (A good herbicidal activity is given at values of at least 70)
herbicidal activity against POLCO (POLCO [5]; application rate 500 g/ha): very good (a very good herbicidal activity is given at values of at least 85)

COC(=O)c1nc(C2CCCO2)ncc1-c1ccccc1C (centres unmarked) [example 276]
herbicidal activity against AMARE (AMARE [1]; application rate 1000 g/ha): very good (a very good herbicidal activity is given at values of at least 85)
herbicidal activity against ABUTH (ABUTH): very good (a very good herbicidal activity is given at values of at least 85)
herbicidal activity against AMARE (AMARE [4]; application rate 1000 g/ha): very good (a very good herbicidal activity is given at values of at least 85)

CN(C)S(=O)(=O)NC(=O)c1nc(C2CC2)ncc1-c1ccccc1Cl [example 287]
herbicidal activity against AMARE (AMARE [1]; application rate 500 g/ha): very good (a very good herbicidal activity is given at values of at least 85)
herbicidal activity against APESV (APESV [3]; application rate 500 g/ha): very good (a very good herbicidal activity is given at values of at least 85)
herbicidal activity against ECHCG (ECHCG [7]; application rate 500 g/ha): very good (a very good herbicidal activity is given at values of at least 85)
herbicidal activity against LOLMU (LOLMU; application rate 500 g/ha): very good (a very good herbicidal activity is given at values of at least 85)
herbicidal activity against POLCO (POLCO [5]; application rate 500 g/ha): very good (a very good herbicidal activity is given at values of at least 85)

COC(=O)CCSC(=O)c1nc(C2CC2)ncc1-c1ccccc1Cl [example 307]
herbicidal activity against APESV (APESV [3]; application rate 250 g/ha): very good (a very good herbicidal activity is given at values of at least 85)
herbicidal activity against AVEFA (AVEFA [6]; application rate 250 g/ha): very good (a very good herbicidal activity is given at values of at least 85)
herbicidal activity against ECHCG (ECHCG [7]; application rate 250 g/ha): good (A good herbicidal activity is given at values of at least 70)
herbicidal activity against LOLMU (LOLMU; application rate 250 g/ha): very good (a very good herbicidal activity is given at values of at least 85)

COc1ccccc1-c1cnc(OC(C)C)nc1C(=O)O [example 74]
herbicidal activity against SETVI (SETVI [8]): good (A good herbicidal activity is given at values of at least 70)

O=C(OCC(F)F)c1nc(C2CC2)ncc1-c1ccccc1Cl [example 257]
herbicidal activity against APESV (APESV [3]; application rate 500 g/ha): very good (a very good herbicidal activity is given at values of at least 85)
herbicidal activity against ECHCG (ECHCG [2]): very good (a very good herbicidal activity is given at values of at least 85)
herbicidal activity against POLCO (POLCO [9]): very good (a very good herbicidal activity is given at values of at least 85)
herbicidal activity against ALOMY (ALOMY; application rate 500 g/ha): very good (a very good herbicidal activity is given at values of at least 85)
herbicidal activity against AVEFA (AVEFA [6]; application rate 500 g/ha): very good (a very good herbicidal activity is given at values of at least 85)
herbicidal activity against ECHCG (ECHCG [7]; application rate 500 g/ha): good (A good herbicidal activity is given at values of at least 70)

NC(=O)c1nc(C2CC2)ncc1-c1ccccc1Cl [example 288]
herbicidal activity against AMARE (AMARE [1]; application rate 500 g/ha): very good (a very good herbicidal activity is given at values of at least 85)
herbicidal activity against APESV (APESV [3]; application rate 500 g/ha): very good (a very good herbicidal activity is given at values of at least 85)
herbicidal activity against POLCO (POLCO [5]; application rate 500 g/ha): very good (a very good herbicidal activity is given at values of at least 85)
herbicidal activity against SETVI (SETVI [10]): very good (a very good herbicidal activity is given at values of at least 85)

C#CCOC(=O)c1nc(C2CC2)ncc1-c1ccccc1Cl [example 256]
herbicidal activity against APESV (APESV [3]; application rate 500 g/ha): very good (a very good herbicidal activity is given at values of at least 85)
herbicidal activity against AVEFA (AVEFA [11]): very good (a very good herbicidal activity is given at values of at least 85)
herbicidal activity against ECHCG (ECHCG [2]): very good (a very good herbicidal activity is given at values of at least 85)
herbicidal activity against APESV (APESV [12]): very good (a very good herbicidal activity is given at values of at least 85)
herbicidal activity against AVEFA (AVEFA [6]; application rate 500 g/ha): very good (a very good herbicidal activity is given at values of at least 85)
herbicidal activity against ECHCG (ECHCG [7]; application rate 500 g/ha): very good (a very good herbicidal activity is given at values of at least 85)
